# Numbers after ± are expanded uncertainties.
# Assay: xn = mol fraction of the nth substance listed
# Details: Fluid (supercritical or subcritical phases); for mass density: Vibrating tube method; for speed of sound: Frequency=5 MHz, Pulse-echo method
smiles,measurement,setting,value
O=C=O [carbon dioxide] + CO,mass density,"263.15 K, 19700 kPa, x1 = 0.97",1052.08 ± 0.8 kg/m3
same,mass density,"263.15 K, 19725 kPa, x1 = 0.97",1052.13 ± 0.8 kg/m3
same,mass density,"263.15 K, 19750 kPa, x1 = 0.97",1052.26 ± 0.8 kg/m3
same,mass density,"263.15 K, 19775 kPa, x1 = 0.97",1052.28 ± 0.8 kg/m3
same,mass density,"263.15 K, 19800 kPa, x1 = 0.97",1052.34 ± 0.8 kg/m3
same,mass density,"263.15 K, 19825 kPa, x1 = 0.97",1052.45 ± 0.8 kg/m3
same,mass density,"263.15 K, 19850 kPa, x1 = 0.97",1052.5 ± 0.8 kg/m3
same,mass density,"263.15 K, 19875 kPa, x1 = 0.97",1052.59 ± 0.8 kg/m3
same,mass density,"263.15 K, 19900 kPa, x1 = 0.97",1052.67 ± 0.8 kg/m3
same,mass density,"263.15 K, 19925 kPa, x1 = 0.97",1052.75 ± 0.8 kg/m3
same,mass density,"263.15 K, 19950 kPa, x1 = 0.97",1052.83 ± 0.8 kg/m3
same,mass density,"263.15 K, 19975 kPa, x1 = 0.97",1052.91 ± 0.8 kg/m3
same,mass density,"263.15 K, 20000 kPa, x1 = 0.97",1052.99 ± 0.8 kg/m3
same,speed of sound,"263.16 K, 3280 kPa, x1 = 0.97",626.2 ± 1 m/s
same,speed of sound,"263.16 K, 3800 kPa, x1 = 0.97",633.5 ± 1 m/s
same,speed of sound,"263.16 K, 5050 kPa, x1 = 0.97",649.7 ± 1 m/s
same,speed of sound,"263.16 K, 6020 kPa, x1 = 0.97",661.8 ± 1 m/s
same,speed of sound,"263.16 K, 6170 kPa, x1 = 0.97",664.3 ± 1 m/s
same,speed of sound,"263.16 K, 8100 kPa, x1 = 0.97",687.5 ± 1 m/s
same,speed of sound,"263.16 K, 10020 kPa, x1 = 0.97",706.8 ± 1 m/s
same,speed of sound,"263.16 K, 14960 kPa, x1 = 0.97",752.4 ± 1.1 m/s
same,speed of sound,"263.16 K, 19890 kPa, x1 = 0.97",792.8 ± 1.1 m/s
same,speed of sound,"263.16 K, 24920 kPa, x1 = 0.97",829.4 ± 1.1 m/s
same,speed of sound,"263.16 K, 29960 kPa, x1 = 0.97",862.5 ± 1.1 m/s
same,speed of sound,"263.16 K, 34890 kPa, x1 = 0.97",892.6 ± 1.2 m/s
same,speed of sound,"263.16 K, 39940 kPa, x1 = 0.97",921 ± 1.2 m/s
same,speed of sound,"263.16 K, 44890 kPa, x1 = 0.97",947 ± 1.2 m/s
same,speed of sound,"263.16 K, 49990 kPa, x1 = 0.97",972.3 ± 1.3 m/s
same,speed of sound,"263.16 K, 54910 kPa, x1 = 0.97",995.6 ± 1.3 m/s
same,speed of sound,"263.16 K, 60010 kPa, x1 = 0.97",1018.3 ± 1.3 m/s
same,speed of sound,"263.16 K, 65090 kPa, x1 = 0.97",1039.8 ± 1.3 m/s
same,speed of sound,"263.16 K, 69970 kPa, x1 = 0.97",1059.9 ± 1.4 m/s
same,speed of sound,"263.16 K, 75000 kPa, x1 = 0.97",1079.5 ± 1.4 m/s
same,speed of sound,"263.16 K, 80150 kPa, x1 = 0.97",1098.9 ± 1.4 m/s
same,speed of sound,"263.16 K, 90130 kPa, x1 = 0.97",1134.4 ± 1.5 m/s
same,speed of sound,"263.16 K, 100140 kPa, x1 = 0.97",1168 ± 1.5 m/s
same,speed of sound,"263.16 K, 110060 kPa, x1 = 0.97",1199.3 ± 1.5 m/s
same,speed of sound,"263.16 K, 119960 kPa, x1 = 0.97",1228.9 ± 1.6 m/s
same,speed of sound,"263.16 K, 140000 kPa, x1 = 0.97",1284.7 ± 1.6 m/s
same,speed of sound,"263.16 K, 159900 kPa, x1 = 0.97",1335.8 ± 1.7 m/s
same,speed of sound,"263.16 K, 179990 kPa, x1 = 0.97",1383.3 ± 1.8 m/s
same,speed of sound,"263.16 K, 194490 kPa, x1 = 0.97",1415.5 ± 1.8 m/s
same,speed of sound,"263.18 K, 6060 kPa, x1 = 0.7534",735.8 ± 1.1 m/s
same,speed of sound,"263.18 K, 9710 kPa, x1 = 0.7534",770.9 ± 1.1 m/s
same,speed of sound,"263.18 K, 14730 kPa, x1 = 0.7534",813.5 ± 1.1 m/s
same,speed of sound,"263.18 K, 14950 kPa, x1 = 0.9803",747.6 ± 1 m/s
same,speed of sound,"263.18 K, 20160 kPa, x1 = 0.7534",854.1 ± 1.2 m/s
same,speed of sound,"263.18 K, 24940 kPa, x1 = 0.7534",886.4 ± 1.2 m/s
same,speed of sound,"263.18 K, 30090 kPa, x1 = 0.7534",918.5 ± 1.2 m/s
same,speed of sound,"263.18 K, 34860 kPa, x1 = 0.9803",887.4 ± 1.2 m/s
same,speed of sound,"263.18 K, 35000 kPa, x1 = 0.7534",946.9 ± 1.2 m/s
same,speed of sound,"263.18 K, 39910 kPa, x1 = 0.9803",916.3 ± 1.2 m/s
same,speed of sound,"263.18 K, 40020 kPa, x1 = 0.7534",974 ± 1.3 m/s
same,speed of sound,"263.18 K, 44820 kPa, x1 = 0.7534",998.5 ± 1.3 m/s
same,speed of sound,"263.18 K, 44980 kPa, x1 = 0.9803",943.5 ± 1.2 m/s
same,speed of sound,"263.18 K, 49950 kPa, x1 = 0.7534",1023.2 ± 1.3 m/s
same,speed of sound,"263.18 K, 50170 kPa, x1 = 0.9803",969 ± 1.3 m/s
same,speed of sound,"263.18 K, 55000 kPa, x1 = 0.9803",992.2 ± 1.3 m/s
same,speed of sound,"263.18 K, 55090 kPa, x1 = 0.7534",1046.8 ± 1.4 m/s
same,speed of sound,"263.18 K, 59880 kPa, x1 = 0.7534",1067.8 ± 1.4 m/s
same,speed of sound,"263.18 K, 60140 kPa, x1 = 0.9803",1015.5 ± 1.3 m/s
same,speed of sound,"263.18 K, 64760 kPa, x1 = 0.9803",1035.7 ± 1.3 m/s
same,speed of sound,"263.18 K, 64880 kPa, x1 = 0.7534",1088.8 ± 1.4 m/s
same,speed of sound,"263.18 K, 70160 kPa, x1 = 0.9803",1058.2 ± 1.4 m/s
same,speed of sound,"263.18 K, 70360 kPa, x1 = 0.7534",1110.8 ± 1.4 m/s
same,speed of sound,"263.18 K, 75340 kPa, x1 = 0.7534",1130 ± 1.5 m/s
same,speed of sound,"263.18 K, 75410 kPa, x1 = 0.9803",1078.8 ± 1.4 m/s
same,speed of sound,"263.18 K, 79750 kPa, x1 = 0.9803",1095.2 ± 1.4 m/s
same,speed of sound,"263.18 K, 80260 kPa, x1 = 0.7534",1148.4 ± 1.5 m/s
same,speed of sound,"263.18 K, 89760 kPa, x1 = 0.7534",1182.3 ± 1.5 m/s
same,speed of sound,"263.18 K, 89940 kPa, x1 = 0.9803",1132.1 ± 1.5 m/s
same,speed of sound,"263.18 K, 99680 kPa, x1 = 0.9803",1165 ± 1.5 m/s
same,speed of sound,"263.18 K, 100040 kPa, x1 = 0.7534",1216.8 ± 1.6 m/s
same,speed of sound,"263.18 K, 109950 kPa, x1 = 0.9803",1197.7 ± 1.5 m/s
same,speed of sound,"263.18 K, 110590 kPa, x1 = 0.7534",1250.3 ± 1.6 m/s
same,speed of sound,"263.18 K, 119810 kPa, x1 = 0.7534",1278.1 ± 1.6 m/s
same,speed of sound,"263.18 K, 120700 kPa, x1 = 0.9803",1230.1 ± 1.6 m/s
same,speed of sound,"263.18 K, 140780 kPa, x1 = 0.9803",1286.1 ± 1.6 m/s
same,speed of sound,"263.18 K, 141280 kPa, x1 = 0.7534",1338.3 ± 1.7 m/s
same,speed of sound,"263.18 K, 159890 kPa, x1 = 0.7534",1386.5 ± 1.8 m/s
same,speed of sound,"263.18 K, 160950 kPa, x1 = 0.9803",1337.6 ± 1.7 m/s
same,speed of sound,"263.18 K, 179550 kPa, x1 = 0.7534",1433.7 ± 1.8 m/s
same,speed of sound,"263.18 K, 179550 kPa, x1 = 0.9803",1382.1 ± 1.8 m/s
same,speed of sound,"263.19 K, 6000 kPa, x1 = 0.8502",691.2 ± 1 m/s
same,speed of sound,"263.19 K, 9880 kPa, x1 = 0.8502",731.2 ± 1 m/s
same,speed of sound,"263.19 K, 14650 kPa, x1 = 0.8502",773.8 ± 1.1 m/s
same,speed of sound,"263.19 K, 19850 kPa, x1 = 0.8502",814.7 ± 1.1 m/s
same,speed of sound,"263.19 K, 24990 kPa, x1 = 0.8502",850.9 ± 1.1 m/s
same,speed of sound,"263.19 K, 29690 kPa, x1 = 0.8502",881.1 ± 1.2 m/s
same,speed of sound,"263.19 K, 35020 kPa, x1 = 0.8502",912.8 ± 1.2 m/s
same,speed of sound,"263.19 K, 40080 kPa, x1 = 0.8502",940.7 ± 1.2 m/s
same,speed of sound,"263.19 K, 44910 kPa, x1 = 0.8502",965.8 ± 1.3 m/s
same,speed of sound,"263.19 K, 50170 kPa, x1 = 0.8502",991.7 ± 1.3 m/s
same,speed of sound,"263.19 K, 55230 kPa, x1 = 0.8502",1015.1 ± 1.3 m/s
same,speed of sound,"263.19 K, 60100 kPa, x1 = 0.8502",1036.7 ± 1.3 m/s
same,speed of sound,"263.19 K, 64650 kPa, x1 = 0.8502",1056 ± 1.4 m/s
same,speed of sound,"263.19 K, 70030 kPa, x1 = 0.8502",1078 ± 1.4 m/s
same,speed of sound,"263.19 K, 74380 kPa, x1 = 0.8502",1095.2 ± 1.4 m/s
same,speed of sound,"263.19 K, 80050 kPa, x1 = 0.8502",1116.4 ± 1.4 m/s
same,speed of sound,"263.19 K, 90050 kPa, x1 = 0.8502",1152.6 ± 1.5 m/s
same,speed of sound,"263.19 K, 100540 kPa, x1 = 0.8502",1187.6 ± 1.5 m/s
same,speed of sound,"263.19 K, 110230 kPa, x1 = 0.8502",1218.2 ± 1.6 m/s
same,speed of sound,"263.19 K, 120050 kPa, x1 = 0.8502",1247.8 ± 1.6 m/s
same,speed of sound,"263.19 K, 140150 kPa, x1 = 0.8502",1303.4 ± 1.7 m/s
same,speed of sound,"263.19 K, 150270 kPa, x1 = 0.8502",1329.1 ± 1.7 m/s
same,mass density,"273.15 K, 4600 kPa, x1 = 0.97",940.38 ± 0.8 kg/m3
same,mass density,"273.15 K, 4625 kPa, x1 = 0.97",940.6 ± 0.8 kg/m3
same,mass density,"273.15 K, 4650 kPa, x1 = 0.97",940.77 ± 0.8 kg/m3
same,mass density,"273.15 K, 4675 kPa, x1 = 0.97",941.01 ± 0.8 kg/m3
same,mass density,"273.15 K, 4700 kPa, x1 = 0.97",941.48 ± 0.8 kg/m3
same,mass density,"273.15 K, 4725 kPa, x1 = 0.97",941.61 ± 0.8 kg/m3
same,mass density,"273.15 K, 4750 kPa, x1 = 0.97",941.7 ± 0.8 kg/m3
same,mass density,"273.15 K, 4775 kPa, x1 = 0.97",942 ± 0.8 kg/m3
same,mass density,"273.15 K, 4800 kPa, x1 = 0.97",942.41 ± 0.8 kg/m3
same,mass density,"273.15 K, 4825 kPa, x1 = 0.97",942.58 ± 0.8 kg/m3
same,mass density,"273.15 K, 4850 kPa, x1 = 0.97",942.76 ± 0.8 kg/m3
same,mass density,"273.15 K, 4875 kPa, x1 = 0.97",942.95 ± 0.8 kg/m3
same,mass density,"273.15 K, 4900 kPa, x1 = 0.97",943.14 ± 0.8 kg/m3
same,mass density,"273.15 K, 4925 kPa, x1 = 0.97",943.32 ± 0.8 kg/m3
same,mass density,"273.15 K, 4950 kPa, x1 = 0.97",943.48 ± 0.8 kg/m3
same,mass density,"273.15 K, 4975 kPa, x1 = 0.97",943.65 ± 0.8 kg/m3
same,speed of sound,"273.15 K, 5000 kPa, x1 = 0.97",570.5 ± 0.9 m/s

# Reference: the NIST ThermoML archive (doi:10.1016/j.jct.2016.03.026)
